US20260176232A1, “PROBENECID COMPOUNDS FOR THE TREATMENT OF INFLAMMASOME-MEDIATED DERMATOLOGICAL CONDITIONS” (Bacainn Biotherapeutics, Ltd., priority 2022, published 2026)

Key:
[1] = system: NLRP1-mediated inflammasome activity; experiment: IC50 curve, L18-MDP-induced IL-1β secretion in LPS-primed immortalized BMDMs; format: cell-based, murine; settings: L18-MDP 100 μg/mL; drug 3.9-350 μM; FIG. 4B; read-out: half maximal inhibitory concentration (IC50), NLRP1-mediated inflammasome activity
Experimental: FIGS. 4A and 4B are charts showing inflammasome activity as determined by measuring secreted IL-1β concentrations in murine immortalized BMDMs pre-activated with lipopolysaccharide (LPS; 100 ng/mL) for 3 h. The macrophages were stimulated with either the NLRP3 activator, nigericin (3 μM) (FIG. 4A) or the NLRP1 agonist L18-MDP (100 μg/mL) (FIG. 4B) and treated or not with BT032 (3.9-350 μM). […] BT032 versus normalized responses (variable slope).

[2] = system: NLRP1 inflammasome; experiment: L18-MDP-induced IL-1β secretion in WT or NLRP3-/- immortalized BMDMs (FIG. 8); format: cell-based, murine; settings: 20, 50, 100, 350 μM
Excerpt: In vitro stimulation of murine macrophages.

[3] = target: NLRP3 inflammasome (Mus musculus, UniProt Q8R4B8); experiment: IL-1β secretion (ELISA) in LPS-primed iBMDMs stimulated with silica or nigericin; format: cell-based, murine (C57BL/6); design: endogenous in cells; host or cells: immortalized wild-type C57BL/6 bone-marrow derived macrophages (iBMDMs), LPS-primed; settings: compared with probenecid in DMSO or PBS
Experimental: In vitro stimulation of murine macrophages. Immortalized wild-type C57BL/6 bone-marrow derived macrophages (iBMDMs) were grown in DMEM supplemented with 10% heat inactivated FBS and 2 mM glutamine. iBMDMs were seeded in 96-well plates 24 hours prior incubation with lipopolysaccharide (LPS; 100 ng/mL) for 3 hours. Cells were then incubated with a control probenecid compound (probenecid dissolved in DMSO (Prob/D), probenecid dissolved in PBS (Prob/P)) or one of the probenecid analogs of the present technology (BT032, BT132, BT133, BT134, BT135, BT136, BT137, BT138, BT139, or BT140) at concentrations of 300 μM, 150 μM, 30 μM, or 3 μM 1 hour prior to stimulation with NLRP3 inflammasome activators, silica ([…]) or nigericin (6 μM). After an additional 6 hours, cell supernatants were collected and levels of IL-1β were quantified by ELISA. These experiments were run in triplicate three times.

[4] = system: NLRP1 inflammasome; experiment: IL-1β secretion in macrophages challenged with L18-MDP (FIG. 7); format: cell-based, human; settings: 20, 100, 350 μM, L18-MDP 100 μg/mL 16 hours, secreted IL-1β
Excerpt: (§1) In vitro stimulation of human macrophages.

[5] = system: lesional skin from patients with psoriasis; experiment: Psoriasis-related gene expression in psoriatic lesion biopsy specimens ex vivo; format: cell-based, human; settings: 500 ng/mL, 12 hours
Experimental: Human samples. Biopsy specimens of psoriatic lesions are obtained from about 10 patients after obtaining informed consent. Two adjacent biopsy specimens are taken from each patient. All specimens are cut at the upper dermis, and the epidermal side is used for the experiment. As a medium, HuMedia-KB2 (Kurabo) containing insulin, human epidermal growth factor, bovine pituitary extract, and gentamicin/amphotericin B is used, according to the manufacturer's protocol. One specimen is cultured with vehicle (DMSO), and the adjacent one was cultured with BT032 (500 ng/mL) for 12 hours.
RNA isolation and the quantitative RT-PCR analysis. Total RNA is isolated using Trizol (Invitrogen, Carlsbad, CA) or RNeasy kits (Qiagen, PL Venlo, Netherlands) according to the manufacturer's protocol. Complementary DNA is reverse transcribed using a Prime Script RT reagent kit (Takara Bio, Shiga, Japan). The quantitative RT-PCR is performed by monitoring the synthesis of double-stranded DNA during the various PCR cycles with SYBR Green I (Roche, Basel, Switzerland) and the LightCycler real-time PCR apparatus (Roche), according to the manufacturer's instructions. All primers are obtained from Greiner Japan (Tokyo, Japan).

[6] = system: non-canonical inflammasome; experiment: IL-1β secretion in macrophages challenged with LPS (B4) (FIG. 4C); format: cell-based, human; settings: BT032 20, 100 μM; Pam3Cys priming; LPS 0111:B4 16 h
Excerpt: as §1

[7] = system: T1, ASC speck formation (inflammasome complex); experiment: Nigericin-induced ASC speck formation in ASC-cerulean/NLRP3 macrophages; format: cell-based; settings: 350 μM, 60 mins before nigericin 3 μM 90 mins; about 20% of cells with nigericin alone
T1 construct: Flag; expressed in transfected cells; host or cells: NLRP3-deficient immortalized BMDMs
Experimental: FIGS. 5B-5D are pictures showing the ability of probenecid analogs of the present technology (e.g., BT032) to inhibit the formation of the inflammasome complex following NLRP3 activation. NLRP3-deficient immortalized BMDMs reconstituted with ASC-cerulean (pseudocolor RED) and NLRP3-Flag were either not stimulated (FIG. 5B) or stimulated with NLRP3 agonist nigericin (3 μM) for 90 mins (FIG. 5C). ASC-cerulean macrophages were also pretreated with BT032 (350 μM) for 60 mins prior to nigericin challenge (FIG. 5D). Macrophages were fixed with 4% paraformaldehyde and imaged for the formation of inflammasome specks as identified by intense, punctate staining in the cytosol of cells. Cell nuclei were stained with DAP (4′,6′-diamindino-2-phenylindole; BLUE). Representative images shown are maximum intensity projections of 3D deconvoluted z stacks using ImageJ.
FIG. 5E is a chart showing the number of ASC specks detected per field (6-7 fields per sample) compared to the total number of cells/field as determined by staining nuclei. Data is represented as a percentage of ASC-specks per field of view for each treatment group as outlined in FIGS. 5B-5D.
Methods. […] ASC-cerulean specks were counted for each field and as percentage of specks per field and represented as a percentage of total Hoechst positive cells.

T1 sequence (Q96P20 whole entry, one chain of several): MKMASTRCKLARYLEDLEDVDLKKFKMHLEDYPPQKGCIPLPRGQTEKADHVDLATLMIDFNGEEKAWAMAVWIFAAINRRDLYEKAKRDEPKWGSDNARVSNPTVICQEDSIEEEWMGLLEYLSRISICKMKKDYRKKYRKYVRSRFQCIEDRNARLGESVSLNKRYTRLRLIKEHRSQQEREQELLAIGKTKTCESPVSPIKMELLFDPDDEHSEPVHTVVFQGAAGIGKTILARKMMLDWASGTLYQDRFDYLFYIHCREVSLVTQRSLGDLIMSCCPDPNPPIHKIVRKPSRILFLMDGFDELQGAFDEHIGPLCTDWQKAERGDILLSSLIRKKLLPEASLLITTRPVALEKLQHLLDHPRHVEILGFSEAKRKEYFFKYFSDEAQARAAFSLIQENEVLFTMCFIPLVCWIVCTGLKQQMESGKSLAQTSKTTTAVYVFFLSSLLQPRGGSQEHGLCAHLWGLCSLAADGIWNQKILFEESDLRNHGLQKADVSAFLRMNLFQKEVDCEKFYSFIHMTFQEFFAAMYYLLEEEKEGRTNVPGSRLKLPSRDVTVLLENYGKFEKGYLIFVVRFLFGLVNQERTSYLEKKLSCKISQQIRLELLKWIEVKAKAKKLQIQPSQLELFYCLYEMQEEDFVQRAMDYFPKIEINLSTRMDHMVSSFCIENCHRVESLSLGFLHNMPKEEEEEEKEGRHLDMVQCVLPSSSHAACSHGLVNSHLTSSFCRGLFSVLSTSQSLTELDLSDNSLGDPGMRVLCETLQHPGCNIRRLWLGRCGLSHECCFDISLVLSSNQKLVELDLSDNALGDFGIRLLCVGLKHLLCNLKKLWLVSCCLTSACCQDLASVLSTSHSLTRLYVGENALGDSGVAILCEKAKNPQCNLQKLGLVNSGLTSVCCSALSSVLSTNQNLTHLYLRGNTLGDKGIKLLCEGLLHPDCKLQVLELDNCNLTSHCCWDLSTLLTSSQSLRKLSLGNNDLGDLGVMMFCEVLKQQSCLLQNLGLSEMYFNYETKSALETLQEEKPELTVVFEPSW
NLRP3 inflammasome, sequence (Q8R4B8 whole entry): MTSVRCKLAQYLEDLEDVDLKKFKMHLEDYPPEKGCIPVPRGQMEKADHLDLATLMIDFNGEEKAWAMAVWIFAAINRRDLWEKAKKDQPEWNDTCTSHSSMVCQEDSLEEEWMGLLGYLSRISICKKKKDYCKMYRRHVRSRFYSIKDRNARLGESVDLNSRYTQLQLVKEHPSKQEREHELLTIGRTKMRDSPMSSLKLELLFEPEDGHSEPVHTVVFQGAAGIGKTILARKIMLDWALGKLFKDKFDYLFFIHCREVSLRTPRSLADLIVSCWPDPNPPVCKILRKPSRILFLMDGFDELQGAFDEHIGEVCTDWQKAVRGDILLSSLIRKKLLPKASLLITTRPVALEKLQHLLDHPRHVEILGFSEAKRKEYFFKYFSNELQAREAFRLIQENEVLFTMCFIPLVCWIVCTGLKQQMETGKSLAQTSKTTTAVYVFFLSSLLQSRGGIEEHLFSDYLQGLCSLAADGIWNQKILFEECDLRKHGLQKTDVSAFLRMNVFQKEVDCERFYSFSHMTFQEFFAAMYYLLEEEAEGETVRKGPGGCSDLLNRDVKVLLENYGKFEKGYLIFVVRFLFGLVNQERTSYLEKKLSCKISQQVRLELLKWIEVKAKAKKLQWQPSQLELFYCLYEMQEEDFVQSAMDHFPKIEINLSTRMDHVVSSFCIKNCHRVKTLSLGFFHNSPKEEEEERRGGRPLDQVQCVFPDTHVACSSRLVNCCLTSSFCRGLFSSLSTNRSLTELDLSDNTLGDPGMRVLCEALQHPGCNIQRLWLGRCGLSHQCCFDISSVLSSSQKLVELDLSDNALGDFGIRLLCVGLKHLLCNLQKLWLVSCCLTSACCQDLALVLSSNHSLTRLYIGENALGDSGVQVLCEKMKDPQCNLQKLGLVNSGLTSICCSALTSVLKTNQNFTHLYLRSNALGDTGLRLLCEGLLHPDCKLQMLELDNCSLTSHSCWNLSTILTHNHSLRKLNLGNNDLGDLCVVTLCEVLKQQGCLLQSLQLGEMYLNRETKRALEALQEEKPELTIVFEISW

## CCCN(CCC)S(=O)(=O)c1ccc(-c2ccc(CCCC(=O)O)cc2)cc1 [BT032, 4-(4′-(N,N-dipropylsulfamoyl)-[1,1′-biphenyl]-4-yl)butanoic acid]
[1]
  IC50: 30 µM
[2]; NLRP3-/- macrophages
  NLRP1 (L18-MDP)-induced inflammasome activation as measured by IL-1β secretion: dose-dependently inhibited
[2]; WT macrophages
  NLRP1 (L18-MDP)-induced inflammasome activation as measured by IL-1β secretion: dose-dependently inhibited
[3]
  potency versus control probenecid compounds (IL-1β secretion): more potent than the control probenecid compounds
[4]
  NLRP1 (L18-MDP)-induced inflammasome activation: dose-dependently inhibited
[5]
  expression levels of IL1B, IL6, IL23A, IL17A versus control specimens: lower expression levels
[6]
  non-canonical inflammasome activity (LPS (B4)): limited impact
[7]
  ASC specks in cells: substantially reduced ASC specks
